Measurements published in patent publication US10751351B2, “Medicament for treatment of diabetic foot infections” (Debiopharm International S.A., priority 2016, dated 2020).
≈ marks a conversion by molar mass, not a printed value. Like-named read-outs stand apart in the source and are kept apart here. Marks after values point to notes of the source that are not given here. Blank lines part the entries; values can stand above or below the molecule they belong to.

Columns and labels:
MRSA clinical strain [1] = format: in vivo, rabbit; details: 4 days of treatment; for bacterial counts in BM and bone, result in words: versus vehicle; for Mean ± SD Δlog10 CFU/g of tissue (day 3-day 7), Bone marrow / Mean ± SD Δlog10 CFU/g of tissue (day 3-day 7), Epiphyseal bone: Compound A 12.5 mg/kg BID iv, vancomycin 100 mg/kg once daily constant iv infusion
Experimental: (§1) MIC assays were performed by broth microdilution using CLSI guidelines. Osteomyelitis (OM) was induced in rabbit through inoculation of the knee with 10^8 CFU of an MRSA clinical strain after bone trepanation. On day 3 post-inoculation, surgical debridement was performed to mimic the clinical procedure. Samples of femoral red bone marrow (BM) and epiphyseal spongy bone were removed and bacterial counts were determined.
On day 7 post-inoculation, the bacterial counts were determined in BM and bone samples. The treatment efficacy was assessed by comparing the bacterial counts before (day 3 after infection) and after (day 7 after infection) the antibacterial therapy. Infected and non-infected BM, bone and plasma samples were collected for quantification of Compound B by LC-MS/MS.

MRSA clinical strain [2] = assay: Staphylococcus aureus-induced acute osteomyelitis in a rabbit model (2), dose range; format: in vivo
Experimental: (§2) MIC assays were performed by broth microdilution using CLSI guidelines. OM was induced in rabbit through inoculation of the knee with 10^8 CFU/mL of a MRSA clinical strain after bone trepanation. On day 3 post-inoculation, surgical debridement was performed to mimic the clinical procedure. Samples of femoral red bone marrow (BM) and epiphyseal spongy bone were removed and bacterial counts corresponding to day 3 after infection were determined. Treatments were started after 3 days of infection and lasted for 4 days with compound A at the dose level of 12.5, 6.25, 1.6, 0.4 or 0.1 mg/kg BID iv (4 h infusion) or its vehicle BID iv. On day 7 post-inoculation, the bacterial counts were determined in BM and bone samples. The treatment efficacy was assessed by comparing the bacterial counts before (day 3 after infection) and after (day 7 after infection) the antibacterial therapy.

[3] = test system: Panton-Valentine leukocidin (PVL)-positive MRSA strain; assay: Staphylococcus aureus-induced acute osteomyelitis in a rat model; format: in vivo; details: for mean reduction in bacterial burden compared to vehicle controls: after 3 weeks of treatment; for mean reduction in bacterial burden compared to vehicle controls / Bone cultures found negative (rats): Compound A 100 mg/kg po BID, vancomycin 100 mg/kg ip QD, fosfomycin 75 mg/kg ip QD; for Bone cultures found negative (rats): day 28, after 3 weeks of treatment
Experimental: (§3) Minimum inhibitory concentration (MIC) assays were performed by broth microdilution using CLSI guidelines against 20 MRSA strains isolated from bone infections. Experimental osteomyelitis was induced through inoculation of the tibial medullary cavity with 7 log10 colony-forming unit (CFU) of a Panton-Valentine leukocidin (PVL)-positive MRSA strain on day 1. Animals were randomly assigned to the following treatment groups: Compound A 100 mg/kg po BID, vancomycin 100 mg/kg ip QD, fosfomycin 75 mg/kg ip QD and vehicle po BID for 3 weeks starting on day 8 post infection (n=6/group). CFU were enumerated in bone homogenates prior to treatment on day 8 in control animals and at the end of treatment period on day 28. Infected and non-infected bone and plasma samples were collected for quantification of Compound B by LC-MS/MS.

MRSA clinical strain [4] = assay: MIC by broth microdilution against the MRSA isolate (Example 4); format: cell-based; details: Staphylococcus aureus, read-out: MIC for the MRSA isolate
Experimental: as §1

human PDE3B = human PDE3B (Homo sapiens, UniProt Q13370); assay: PDE3 inhibition assay, Caliper mobility shift (PDE3B); format: biochemical; details: iFL-cAMP substrate, read-out: absolute IC50 PDE3B
Experimental: (§4) The inhibitory activity of Compound B was assessed against human PDE3A and PDE3B and was compared to cilostazol (a PDE3 inhibitor) in the enzymatic phosphodiesterase assay using Caliper mobility shift assay (2. Card A1, Caldwell C, Min H et al: High-throughput biochemical kinase selectivity assays: panel development and screening applications. J Biomol Screen. (2009); 14(1):31-42.). This method is based on change in charge and electrophoretic separation of product from fluorescently labeled substrate iFL-cAMP. Assays were performed in a 26 μL volume in a 384 well plate. iFL-cAMP substrate was incubated, off-chip, in reaction buffer (100 mM HEPES (pH 7.5), 5 mM MgCl2 and 0.002% Brij35) in the presence of active enzymes (PDE3A and PDE3B) and test compounds at various concentrations. After incubation period, the reaction products and remaining substrate were measured. Detection was performed using EZ reader II. The concentration of compound inducing 50% of the response (IC50) was determined from each individual concentration-response curve using variable slope fits with Prism software (Graph Pad, San Diego, Calif., USA).

human PDE3A = human PDE3A (Homo sapiens, UniProt Q14432); assay: PDE3 inhibition assay, Caliper mobility shift (PDE3A); format: biochemical; details: iFL-cAMP substrate, read-out: absolute IC50 PDE3A
Experimental: as §4

MRSA clinical strain [5] = assay: MIC by broth microdilution against the MRSA isolate (Example 5); format: cell-based; details: Staphylococcus aureus, Example 5 isolate
Experimental: as §2

[6] = Bone and plasma quantification of Compound B by LC-MS/MS in rat osteomyelitis model; details: in vivo, Compound A 100 mg/kg po BID, no difference between infected and non-infected tibias, read-out: bone:plasma ratio of Compound B
Experimental: as §3

[7] = test system: rabbit saphenous vein rings; assay: In vitro vascular relaxation test in rabbit saphenous vein rings pre-contracted with noradrenaline; format: cell-based; details: for EC50: Oryctolagus cuniculus, saphenous vein rings pre-contracted with 1 μM noradrenaline, read-out: pD2 value (−log EC50) (converted); for relaxation of 1 μM noradrenaline pre-contracted preparations: DMSO-treated group −29±11%
Experimental: The vascular relaxing effects of Compound B were evaluated using isolated rabbit saphenous venous tissue. Rabbits were sacrificed by a blow to the head followed by a cervical dislocation and exsanguination. A segment of the saphenous vein was carefully excised. Vein was cleaned of all fat and connective tissue and cut into 2.5 mm long rings. The rings were then mounted horizontally in 20-ml organ baths filled with Krebs's solution maintained at 37.7±0.5° C. and gassed with a mixture of 95% O2 and 5% CO2. Krebs's solution was made up as follows (mM): NaCl: 118.0/KCl: 5.0/CaCl2): 2.6/MgSO4 (7H2O): 1.2/NaHCO3: 24.9/KH2PO4: 1.2/glucose: 10.0. pH is 7.40±0.05. The rings were allowed to equilibrate for 60 minutes at an optimal resting tension of 1 g. Contractile tensions were measured using an isometric force transducer and signals were analyzed using a specialized software (IOX version 1.554, EMKA Technologies, Paris, France). Tissue viability was verified using three challenges to 80 mM KCl. The maximal contraction was reached after 3 challenges of KCl. Endothelium integrity was verified on the basis of the relaxation produced by 1 μM acetylcholine in rings precontracted with 1 μM noradrenaline. All experiments were performed on […] rings with endothelium. The method evaluated the effect of the test substance in pre-contracted preparations. The preparations were pre-contracted with an agonist (Noradrenaline at 1 μM) until a stable tonic contraction was reached. Six cumulative concentrations of the test or comparison substances were then added into the bath and relaxations were recorded to plot a concentration-response curve. Three preparations were exposed to DMSO, 0.1% over 6 consecutive periods for comparison to Compound B and cilostazol. Four preparations (obtained from 4 animals) were studied for the test and comparison substances. Three preparations were studied for the DMSO-treated group. The relaxation response to test substance was expressed as the percentage of inhibition of agonist-induced pre-contraction. The concentration of agonist inducing 50% of the maximum response (EC50) was determined from each individual concentration-response curve using linear regression. For each ring, the agonist potency (pD2) was calculated as −log (EC50).

[8] = 0.1 mg/kg BID iv, 4 days of treatment, 1 animal
[9] = 0.4 mg/kg BID iv, 4 days of treatment
[10] = 1.6 mg/kg BID iv, 4 days of treatment
[11] = 6.25 mg/kg BID iv, 4 days of treatment
[12] = 12.5 mg/kg BID iv, 4 days of treatment

Chain of human PDE3A (Q14432 whole entry): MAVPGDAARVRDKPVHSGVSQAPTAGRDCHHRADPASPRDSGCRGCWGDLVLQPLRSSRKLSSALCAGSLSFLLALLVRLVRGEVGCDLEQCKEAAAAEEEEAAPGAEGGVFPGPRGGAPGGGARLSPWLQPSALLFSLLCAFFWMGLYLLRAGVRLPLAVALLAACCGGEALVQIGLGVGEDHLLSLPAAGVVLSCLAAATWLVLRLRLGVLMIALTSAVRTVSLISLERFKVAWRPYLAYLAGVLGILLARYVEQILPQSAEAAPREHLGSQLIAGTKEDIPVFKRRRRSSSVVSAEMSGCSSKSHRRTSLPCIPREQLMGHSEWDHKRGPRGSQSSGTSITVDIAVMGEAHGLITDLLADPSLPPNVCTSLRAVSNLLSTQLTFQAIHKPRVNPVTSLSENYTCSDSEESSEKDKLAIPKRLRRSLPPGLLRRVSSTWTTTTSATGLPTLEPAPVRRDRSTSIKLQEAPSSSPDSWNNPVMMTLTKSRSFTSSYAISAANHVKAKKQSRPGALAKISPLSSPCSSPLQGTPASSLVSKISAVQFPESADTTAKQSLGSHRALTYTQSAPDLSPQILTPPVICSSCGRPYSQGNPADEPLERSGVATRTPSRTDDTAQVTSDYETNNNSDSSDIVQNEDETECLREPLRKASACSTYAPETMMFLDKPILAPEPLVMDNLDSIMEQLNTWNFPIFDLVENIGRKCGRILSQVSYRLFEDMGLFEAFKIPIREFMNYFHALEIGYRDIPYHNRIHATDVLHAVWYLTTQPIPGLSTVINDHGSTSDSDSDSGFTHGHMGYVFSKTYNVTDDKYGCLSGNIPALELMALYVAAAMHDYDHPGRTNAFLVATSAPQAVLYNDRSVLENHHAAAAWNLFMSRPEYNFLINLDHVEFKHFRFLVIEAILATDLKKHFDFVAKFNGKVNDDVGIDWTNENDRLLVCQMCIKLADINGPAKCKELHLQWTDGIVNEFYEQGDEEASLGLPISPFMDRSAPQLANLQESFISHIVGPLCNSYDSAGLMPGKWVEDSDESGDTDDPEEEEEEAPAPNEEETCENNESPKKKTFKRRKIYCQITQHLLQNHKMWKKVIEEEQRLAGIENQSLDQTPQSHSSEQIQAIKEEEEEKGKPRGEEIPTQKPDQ
Chain of human PDE3B (Q13370 whole entry): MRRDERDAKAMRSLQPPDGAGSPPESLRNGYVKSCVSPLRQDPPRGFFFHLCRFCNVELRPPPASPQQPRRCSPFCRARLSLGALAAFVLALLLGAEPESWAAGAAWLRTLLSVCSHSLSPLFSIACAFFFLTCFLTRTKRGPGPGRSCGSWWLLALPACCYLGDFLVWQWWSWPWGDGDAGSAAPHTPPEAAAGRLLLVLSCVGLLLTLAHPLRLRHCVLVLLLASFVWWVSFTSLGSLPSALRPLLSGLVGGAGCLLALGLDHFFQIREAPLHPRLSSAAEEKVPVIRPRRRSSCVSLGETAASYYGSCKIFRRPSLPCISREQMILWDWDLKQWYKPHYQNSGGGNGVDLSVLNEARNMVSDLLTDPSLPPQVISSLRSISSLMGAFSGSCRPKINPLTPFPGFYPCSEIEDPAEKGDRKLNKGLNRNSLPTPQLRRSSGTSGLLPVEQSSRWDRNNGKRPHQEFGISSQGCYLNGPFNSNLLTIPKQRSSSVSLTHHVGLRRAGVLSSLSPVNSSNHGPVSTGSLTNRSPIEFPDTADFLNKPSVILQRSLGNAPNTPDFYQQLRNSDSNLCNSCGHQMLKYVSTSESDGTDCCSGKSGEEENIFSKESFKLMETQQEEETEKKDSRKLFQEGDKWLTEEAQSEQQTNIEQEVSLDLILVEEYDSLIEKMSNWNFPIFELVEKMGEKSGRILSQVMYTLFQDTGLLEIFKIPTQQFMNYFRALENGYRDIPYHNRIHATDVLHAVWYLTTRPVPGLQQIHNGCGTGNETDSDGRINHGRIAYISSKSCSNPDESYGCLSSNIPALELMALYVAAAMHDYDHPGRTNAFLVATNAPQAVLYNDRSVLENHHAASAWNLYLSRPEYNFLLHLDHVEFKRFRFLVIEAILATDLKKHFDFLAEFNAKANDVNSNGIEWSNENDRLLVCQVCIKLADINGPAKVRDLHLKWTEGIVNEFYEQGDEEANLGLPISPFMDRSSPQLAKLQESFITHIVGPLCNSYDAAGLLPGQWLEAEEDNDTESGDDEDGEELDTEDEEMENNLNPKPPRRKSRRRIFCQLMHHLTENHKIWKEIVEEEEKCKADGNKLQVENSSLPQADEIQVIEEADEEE

Structure (SMILES): Cc1c(CN(C)C(=O)/C=C/c2cnc3c(c2)CCC(=O)N3COP(=O)(O)O)oc2ccccc12 [Compound A, {6-[(1E)-3-{methyl[(3-methyl-1-benzofuran-2-yl)methyl]amino}-3-oxoprop-1-en-1-yl]-2-oxo-3,4-dihydro-1,8-naphthyridin-1(2H)-yl}methyl dihydrogen phosphate]
bacterial counts in BM and bone, result in words (MRSA clinical strain [1]): significant anti-staphylococcal activity
Mean ± SD Δlog10 CFU/g of tissue (day 3-day 7), Bone marrow (MRSA clinical strain [1]): −3.62 ± 0.67 log10 CFU/g of tissue
Mean ± SD Δlog10 CFU/g of tissue (day 3-day 7), Epiphyseal bone (MRSA clinical strain [1]): −2.52 ± 1.25 log10 CFU/g of tissue
Δlog10 CFU/g of tissue (day 3-day 7), Bone marrow (MRSA clinical strain [2]; [8]): −0.74 log10 CFU/g of tissue
Δlog10 CFU/g of tissue (day 3-day 7), Epiphyseal bone (MRSA clinical strain [2]; [8]): −1.02 log10 CFU/g of tissue
Mean ± SD Δlog10 CFU/g of tissue (day 3-day 7), Bone marrow (MRSA clinical strain [2]; [9]): −2.03 ± 1.11 ^a log10 CFU/g of tissue
Mean ± SD Δlog10 CFU/g of tissue (day 3-day 7), Epiphyseal bone (MRSA clinical strain [2]; [9]): −1.23 ± 0.93 ^b log10 CFU/g of tissue
Mean ± SD Δlog10 CFU/g of tissue (day 3-day 7), Bone marrow (MRSA clinical strain [2]; [10]): −3.18 ± 0.74 ^a log10 CFU/g of tissue
Mean ± SD Δlog10 CFU/g of tissue (day 3-day 7), Epiphyseal bone (MRSA clinical strain [2]; [10]): −1.53 ± 1.53 ^a log10 CFU/g of tissue
Mean ± SD Δlog10 CFU/g of tissue (day 3-day 7), Bone marrow (MRSA clinical strain [2]; [11]): −3.45 ± 1.53 ^a log10 CFU/g of tissue
Mean ± SD Δlog10 CFU/g of tissue (day 3-day 7), Epiphyseal bone (MRSA clinical strain [2]; [11]): −2.17 ± 0.72 ^a log10 CFU/g of tissue
bacterial titers in BM and bone, result in words (MRSA clinical strain [2]; 12.5 mg/kg): significant reduction in bacterial titers
Mean ± SD Δlog10 CFU/g of tissue (day 3-day 7), Bone marrow (MRSA clinical strain [2]; [12]): −3.42 ± 0.96 ^a log10 CFU/g of tissue
Mean ± SD Δlog10 CFU/g of tissue (day 3-day 7), Epiphyseal bone (MRSA clinical strain [2]; [12]): −1.76 ± 0.74 ^a log10 CFU/g of tissue
bacterial counts in BM and bone, result in words (MRSA clinical strain [2]; lower doses 6.25, 1.6, 0.4 and 0.1 mg/kg IV BID, down to the 0.4 mg/kg dose): significant reduction in bacterial counts
mean reduction in bacterial burden compared to vehicle controls [3]: 2.8 log10 CFU/g of bone
development of resistance ([3]; after the 3-week treatment period): No development of resistance
Bone cultures found negative (rats) [3]: 2/6

Structure (SMILES): Cc1c(CN(C)C(=O)/C=C/c2cnc3c(c2)CCC(=O)N3)oc2ccccc12 [Compound B, (E)-N-methyl-N-((3-methylbenzofuran-2-yl)methyl)-3-(7-oxo-5,6,7,8-tetrahydro-1,8-naphthyridin-3-yl)acrylamide]
MIC (MRSA clinical strain [4]; Example 4 isolate): 4 ng/mL (≈ 0.0107 µM)
development of resistance (MRSA clinical strain [2]; after the 4-day treatment period): No development of resistance
IC50 (human PDE3B): 703 nM
IC50 (human PDE3A): 600 nM
MIC (MRSA clinical strain [5]): 4 ng/mL (≈ 0.0107 µM)
Kp [6]: 0.06 to 0.27
EC50 [7]: 1410 nM
relaxation of 1 μM noradrenaline pre-contracted preparations ([7]; at 10 μM): −69±9%
relaxant effects compared to vehicle control group (DMSO) ([7]; at 3 and 10 μM): concentration-dependently relaxed
relaxant effects compared to vehicle control group (DMSO) ([7]; from 0.03 to 1 μM): no relaxant effects

IC50 (human PDE3B): 912 nM
IC50 (human PDE3A): 416 nM
EC50 [7]: 832 nM
Structure (SMILES): O=C1CCc2cc(OCCCCc3nnnn3C3CCCCC3)ccc2N1 [cilostazol, reference compound]
relaxation of 1 μM noradrenaline pre-contracted preparations ([7]; at 100 μM): −70±7%
relaxant effects compared to vehicle control group (DMSO) ([7]; at 10 and 100 μM): concentration-dependently relaxed
relaxant effects compared to vehicle control group (DMSO) ([7]; from 0.001 to 1 μM): no relaxant effects

Structure (SMILES): C[C@@H]1O[C@@H]1P(=O)(O)O [fosfomycin]
mean reduction in bacterial burden compared to vehicle controls [3]: 3.3 log10 CFU/g of bone
Bone cultures found negative (rats) [3]: 2/6

Structure (SMILES): CN[C@H](CC(C)C)C(=O)N[C@H]1C(=O)N[C@@H](CC(N)=O)C(=O)N[C@H]2C(=O)N[C@H]3C(=O)N[C@H](C(=O)N[C@H](C(=O)O)c4cc(O)cc(O)c4-c4cc3ccc4O)[C@H](O)c3ccc(c(Cl)c3)Oc3cc2cc(c3O[C@@H]2O[C@H](CO)[C@@H](O)[C@H](O)[C@H]2O[C@H]2C[C@](C)(N)[C@H](O)[C@H](C)O2)Oc2ccc(cc2Cl)[C@H]1O [vancomycin, reference compound]
bacterial counts in BM and bone, result in words (MRSA clinical strain [1]): No significant difference
Mean ± SD Δlog10 CFU/g of tissue (day 3-day 7), Bone marrow (MRSA clinical strain [1]): −1.05 ± 1.30 log10 CFU/g of tissue
Mean ± SD Δlog10 CFU/g of tissue (day 3-day 7), Epiphyseal bone (MRSA clinical strain [1]): −0.49 ± 0.65 log10 CFU/g of tissue
MIC (MRSA clinical strain [4]): 1000 ng/mL (≈ 0.69 µM)
mean reduction in bacterial burden compared to vehicle controls [3]: no statistically significant reduction
Bone cultures found negative (rats) [3]: 0/6
